Measured values from patent US4962200A, “Nitrogen-containing compound” (Mitsui Petrochemical Industries, Ltd., priority 1987, dated 1990).

Each compound was assayed on formation of peroxide lipids (rat brain homogenate) (assay: activity of inhibiting formation of peroxide lipids (TBA assay, rat brain homogenate supernatant)). Conditions: final concentration 10^-4 M, pH 7.4, 37° C., 30 minutes, malondialdehyde by TBA assay vs control, 100 µM.
Assay type: biochemical, rat (Wistar)
Protocol: With respect to the compounds of the present invention, the activity of inhibiting formation of peroxide lipids was tested according to the following procedures.
Male rats of the Wistar system having a body weight of 200 to 250 g were used. The rat brain was extracted by beheading and homogenized by 50 mM phosphate buffer solution (pH 7.4)(PBS), and centrifugal separation was conducted for 15 minutes under 1000 G. The supernatant was frozen at -30° C. and stored, and when the test was carried out, the frozen supernatant was thawed in running water and diluted with PBS so that the volume was trebled, whereby a living body sample was prepared.
Two samples were formed by adding 10 μl of a solution of the test compound (the final concentration was 10^-4 M) to 990 μl of the living body sample. One sample was incubated at 37° C. for 30 minutes and 0.2 ml of a 35% solution of perchloric acid was added to stop the reaction. The other sample was not incubated but the solution of perchloric acid was immediately added to stop the reaction. Both the reaction liquids were subjected to centrifugal separation at 3000 rpm for 15 minutes. With respect to each sample, by using 0.5 ml of the supernatant, the amount of the peroxide lipid was determined according to the TBA assay [Okawa et al., Anal. Biochem., 95. 351 (1979)], and the difference between both the measured values was determined as the amount of malondialdehyde (MDS)(the unit: nmole/mg protein). The peroxide lipid inhibition ratio was calculated from this MDA amount (A) and the control value (B) (the MDA amount obtained when the test compound was not added) according to the following formula: [formula]
For Cn1cncc1CN1CCCc2ccccc21 [Compound 1], the “Inhibition Ratio (%) (peroxide lipid inhibition ratio)” value (from here on “Inhibition Ratio (%)”) was 99.0%. With Cc1nc(CN2CCCc3ccccc32)cs1 [Compound 3] the “Inhibition Ratio (%)” value was 88.7%. In the case of Cc1nc(CN2CCc3ccccc32)cs1 [Compound 4], the “Inhibition Ratio (%)” value is reported as 84.6%. c1csc(CN2CCCc3ccccc32)c1 [Compound 5] was tested, and the “Inhibition Ratio (%)” value was 93.6%. With c1csc(CN2CCc3ccccc32)c1 [Compound 6] the “Inhibition Ratio (%)” value was 95.4%. In the case of CN(C)C(=O)n1cnc(CN2c3ccccc3CCc3ccccc32)c1 [Compound 9, 1-(N,N-dimethylcarbamoyl)-4-(10,11-dihydro-5H-dibenzo[b,f]azepin-5-ylmethyl)imidazole], the “Inhibition Ratio (%)” value is reported as 94.0%. For c1coc(CN2CCc3ccccc32)c1 [Compound 10], the “Inhibition Ratio (%)” value was 87.0%. In the case of c1coc(CN2CCOc3ccccc32)c1 [Compound 11, 4-(2-furyl)methyl-3,4-dihydro-2H-benzooxazine], the “Inhibition Ratio (%)” value is reported as 56.0%. For Cc1ncoc1CN1CCCc2ccccc21 [Compound 12], the “Inhibition Ratio (%)” value was 97.8%. In the case of c1coc(CCCN2CCCc3ccccc32)c1 [Compound 13], the “Inhibition Ratio (%)” value is reported as 90.5%. With c1ccc(CN2CCCc3ccccc32)nc1 [Compound 14] the “Inhibition Ratio (%)” value was 100.0%. CCOC(=O)c1cnc(C)nc1CN1CCCc2ccccc21 [Compound 15] was tested, and the “Inhibition Ratio (%)” value was 100.0%. With CCOC(=O)c1cnc(-c2ccccc2)nc1CN1CCCc2ccccc21 [Compound 16] the “Inhibition Ratio (%)” value was 100.0%. In the case of CCOC(=O)c1cncnc1CN1CCCc2ccccc21 [Compound 17], the “Inhibition Ratio (%)” value is reported as 100.0%. With O=C1C=C(OCCN2CCCc3ccccc32)C(=O)c2ccccc21 [Compound 18] the “Inhibition Ratio (%)” value was 97.9%. c1coc(CN2CCSc3ccccc32)c1 [Compound 19, 4-(2-furyl)methyl-3,4-dihydro-2H-1,4-benzothiazine] was tested, and the “Inhibition Ratio (%)” value was 80.9%. In the case of Cc1ccc2c(c1)CCCN2Cc1ccco1 [Compound 20], the “Inhibition Ratio (%)” value is reported as 85.1%. With Clc1ccc2c(c1)CCCN2Cc1ccco1 [Compound 21] the “Inhibition Ratio (%)” value was 87.2%.
